This is an account of results in BindingDB's records for doi:10.1002/cbic.201600673 (Université de Nantes, 2017).

What all share (assay): Fluorescence Polarization Assay
(In fluorescence polarisation assays a small probe gives low polarisation when free and higher when bound to something large.)

Assay [1] addresses Galectin-1 [C3S] (Human, UniProt P09382, C3S).
The target in assay [2] is Galectin-3 (Homo sapiens, UniProt P17931).
The target of assay [3] is Galectin-7 (Homo sapiens, UniProt P47929).
Chain of Galectin-7 (P47929 whole entry): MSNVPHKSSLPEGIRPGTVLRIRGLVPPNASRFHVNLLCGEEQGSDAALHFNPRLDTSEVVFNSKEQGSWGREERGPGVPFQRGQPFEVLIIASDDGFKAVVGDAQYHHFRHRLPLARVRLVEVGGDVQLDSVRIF

Chain of Galectin-1 [C3S] (P09382 2-135 C3S limits assumed): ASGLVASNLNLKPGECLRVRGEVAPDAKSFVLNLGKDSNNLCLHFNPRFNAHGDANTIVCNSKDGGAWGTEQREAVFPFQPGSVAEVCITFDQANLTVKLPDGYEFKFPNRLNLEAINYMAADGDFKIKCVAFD
Chain of Galectin-3 (P17931 whole entry): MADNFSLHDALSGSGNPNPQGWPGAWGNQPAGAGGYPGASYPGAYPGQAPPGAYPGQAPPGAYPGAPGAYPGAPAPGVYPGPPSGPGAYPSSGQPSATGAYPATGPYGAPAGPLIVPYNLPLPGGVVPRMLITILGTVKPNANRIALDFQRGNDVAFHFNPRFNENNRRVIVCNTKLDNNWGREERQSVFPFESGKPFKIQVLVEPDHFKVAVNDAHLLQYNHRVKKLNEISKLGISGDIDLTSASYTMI

Broadly, the Kd is the equilibrium constant for the complex coming apart. For the molecule `COc1cccc(C(=O)NC2C(O)[C@H](O[C@@H]3OC(CO)[C@H](O)C(OCc4ccc5ccccc5c4)C3O)C(CO)O[C@H]2OCCNC(=O)CCCCCN2C(=O)C=CC2=O)c1` (stereo partly drawn) [2-[6-Maleimide)caproyl]ethyl [3-O-(2-naphthyl)methyl-β-D-galactopyranosyl]-(1-4)-2-deoxy-2-(3-methoxybenzamido)-β-D-glucopyranoside (13)], the Kd in assay [1] (4 °C) was found to be 16 µM; in assay [1] (25 °C), 43 µM; in assay [2] (4 °C) it was 0.014 µM; in assay [2] (25 °C), 0.082 µM; in assay [3] (4 °C), 21 µM; in assay [3] (25 °C), 129 µM.
In assay [3] (4 °C), `OCC1O[C@@H](S[C@@H]2OC(CO)[C@H](O)C(n3cc(-c4cccc(F)c4)nn3)C2O)C(O)C(n2cc(-c3cccc(F)c3)nn2)[C@H]1O` (stereo not given in full) [TD139] displayed a Kd of 32 µM.
With `COc1cccc(C(=O)CC2C(O)[C@H](O[C@@H]3OC(CO)[C@H](O)C(OCc4ccc5ccccc5c4)C3O)C(CO)O[C@H]2OCCN=[N+]=[N-])c1` (stereo partly drawn) [[3-O-(2-naphthyl)methyl-β-D-galactopyranosyl]-(1-4)-2-deoxy-2-(3-methoxybenzamido)-β-D-glucopyranoside (11)], the Kd in assay [1] (4 °C) amounted to 27 µM; in assay [2] (4 °C), 0.59 µM; in assay [2] (25 °C), 2.99 µM; in assay [3] (4 °C), 90 µM.
With `COc1cccc(COC2C(O)[C@H](O[C@@H]3C(CO)O[C@@H](N=[N+]=[N-])C(NC(=O)c4cccc(OC)c4)C3O)OC(CO)[C@@H]2O)c1` (stereo partly drawn) [4-O-[3-O-(3-methoxybenzyl)-β-D-galactopyranosyl)]-1-azido-1,2-dideoxy-2-(3-methoxybenzamido)-β-D-glucopyranose (1)], the Kd in assay [1] (4 °C) is 23 µM; in assay [2] (4 °C), 0.66 µM; in assay [2] (25 °C), 3.27 µM; in assay [3] (4 °C) it was 86 µM.
